Measured values: patent US12336980B2, “Dosing regimen for a selective S1P1 receptor agonist” (Vanda Pharmaceuticals Inc., priority 2014, dated 2025)

Tested on: healthy subjects
Experiment: Holter ECG, mean hourly heart rate and AUEC, two-way cross-over up-titration study
Format: in vivo, human
Conditions: for mean hourly HR change from baseline at nadir (Holter): p <0.05 vs. baseline; for mean hourly HR change from baseline (Holter): Day 3, 2 h post-dose
Procedure: In a single-center, double-blind, placebo-controlled, randomized, two-way cross-over study, 32 healthy subjects (15 males) received placebo on Day 1 followed by multiple-dose administration of either ponesimod or placebo (ratio 3:1). Ponesimod was administered alternately using regimen A (incremental dose increase from 2 to 20 mg) or B (10 mg for 7 days followed by a single-dose administration of 20 mg). Cardiodynamic (Holter and 12-lead ECG), pharmacokinetic, pharmacodynamic (total lymphocyte count), and safety variables were assessed.
The enrolled subjects came to the study center for each treatment period on Day −2 and participated in a run-in (all study procedures performed without study drug administration) on Day −1. On Day 1, subjects were randomized to one of the two possible sequences of the two up-titration regimens A and B (ratio 1:1). On Day 1, all subjects received placebo; the first study drug administration (or its matching placebo) occurred on Day 2. Regimen A consisted of the novel up-titration regimen: ponesimod was administered once daily (o.d.) orally at a dose of 2 mg on Day 2 and Day 3, 3 mg on Day 4 and Day 5, 4 mg on Day 6 and Day 7, 5 mg on Day 8, 6 mg on Day 9, 7 mg on Day 10, 8 mg on Day 11, 9 mg on Day 12, 10 mg on Day 13 and Day 14, and 20 mg on Day 15. The reference regimen (regimen B) was based on previous studies (Olsson T. et al., Oral ponesimod in relapsing-remitting multiple sclerosis: a randomised phase II trial. J Neurol Neurosurg Psychiatry. 2014; 85 (11): 1198-1208; and Vaclavkova A. et al., Oral ponesimod in patients with chronic plaque psoriasis: a randomised, double-blind, placebo-controlled phase 2 trial. Lancet. 2014; 384 (9959): 2036-2045) and consisted of an o.d. oral administration of ponesimod at a dose of 10 mg for 7 days (i.e., from Day 2 to Day 8) and 20 mg on Day 9. From Day 10 to Day 15 subjects received o.d. the matching placebo. In the placebo group (1:1 sex ratio), subjects received placebo from Day 1 to Day 15. All treatments were administered at the same time in the morning (fasted condition) with approximately 240 mL of water.
Cardiodynamic endpoints were assessed using Holter and 12-lead ECG. The 24-h Holter recordings were performed on Day -1, Day 1, Day 2, Day 9, Day 13, and Day 15. The 12-h Holter recordings were performed on the other days. In addition, Holter data were used to estimate the area under the effect curve (AUEC) for HR. 12-lead ECGs were performed from Day −1 to Day 16 at pre-dose and 1, 2, 3, 4, 5, 6, 8, 10, and 12 h after study drug administration. An additional 12-lead ECG recording was performed at EOFP and EOS. Heart rate nadir, Emax (maximum decrease of mean hourly HR from baseline, which was defined as the mean of the time-matched assessments measured on Day −1 and Day 1 pre-dose), and occurrence of values of interest (HR <45 bpm, HR decrease from baseline >20 bpm, and PR interval increase from baseline >20 ms), and AV-blocks (i.e., PR interval >210 ms) were obtained with 12-lead ECG.
Cardiodynamic and pharmacodynamic data are expressed as mean±SD. Repeated measure one-way ANOVAs followed by Tukey's multiple-comparisons tests were used to perform inter-group (i.e., placebo vs. regimen A vs. regimen B) comparisons. Student's t-tests were employed to perform intra-group (baseline vs. treatment) comparisons. Differences were considered to be statistically significant at p <0.05. SAS® version 9.2 (SAS Institute, Cary, NC, USA) was used for the statistical analysis and descriptive statistics of clinical data.

Compound: CCC/N=C1\S/C(=C\c2ccc(OC[C@H](O)CO)c(Cl)c2)C(=O)N1c1ccccc1C [ponesimod, (R)-5-[3-chloro-4-(2,3-dihydroxy-propoxy)-benz[Z]ylidene]-2-([Z]-propylimino)-3-o-tolyl-thiazolidin-4-one]
- time for mean hourly HR to return to pre-dose values after administration (Day 2 first dose, regimens A and B): 4 to 5 h
- decrease in mean hourly HR following administration (Day 4 to last day of treatment): no further significant decreases
- mean hourly HR change from baseline at nadir (Holter) (regimen A (2 mg), Day 2 first dose, 2 h post-dose, mean±SD): −6±7.4 bpm
- mean hourly HR change from baseline (Holter) (regimen A (2 mg), mean±SD): −8±5.3 bpm
- mean AUEC0-12 for HR (regimen A, Day 2 first administration, mean±SD): −70.7±38.7 bpm·h
- time of nadir of mean hourly HR after administration (regimen A, Day 2 first dose): 2 h
- mean AUEC0-12 for HR (regimen A, Day 3, mean±SD): −105.5±49.0 bpm·h
- mean hourly HR change from baseline at nadir (Holter) (regimen B (10 mg), Day 2 first dose, 3 h post-dose, mean±SD): −12±6.9 bpm
- mean hourly HR change from baseline (Holter) (regimen B (10 mg), mean±SD): −9±5.7 bpm
- mean AUEC0-12 for HR (regimen B (ponesimod 10 mg), Day 3, mean±SD): −146.6±59.8 bpm·h
- mean AUEC0-12 for HR (regimen B, Day 2 first administration, mean±SD): −128.6±63.3 bpmh
- time of nadir of mean hourly HR after administration (regimen B, Day 2 first dose): 3 h
